Measured values: publication PMC3731320, “Identification of Benzimidazole Diamides as Selective Inhibitors of the Nucleotide-Binding Oligomerization Domain 2 (NOD2) Signaling Pathway” (PLoS ONE, 2013)
Entries after “also recorded” stand apart in the source; their conditions may differ. One block for each compound: values may come before it.

What was measured:
NOD2 [1] = test: MDP-stimulated cytokine release in primary human monocytes; format: cell-based; details: MDP 0.1 μg/mL
Description: (§1) […] The concentration of IL-1β, IL-6 and TNFα in medium samples collected after 24-hour treatment was determined using the MS6000 human pro-inflammatory-4 II tissue culture kit (Meso Scale Discovery). The IL-8 concentration was determined by HTRF.

TLR2 [2] = test: Pam2CSK4-stimulated IL-8 release in primary human monocytes; format: cell-based; details: Pam2CSK4 100 pg/mL; GSK717 0.5–16 μM, RIP2 inhibitor 0.05–1.6 μM
NOD2 and TLR2 = test: IL-8 release in primary human monocytes co-stimulated with MDP and Pam2CSK4 (NOD2-TLR2 synergy); format: cell-based; details: MDP 0.1 μg/mL + Pam2CSK4 100 pg/mL; listed as GSK717
Description: as §1

NOD2 [3] = test: MDP-stimulated IL-8 release in 293/hNOD2 cells (HTRF); format: cell-based, human; details: Homo sapiens
Description: (§2) After 24 hours the amount of IL-8 secreted into the medium was determined by homogeneous time resolved fluorescence (HTRF) assay by the direct addition of a 1:1 mix of europium cryptate and XL665-conjugated anti-IL-8 antibodies according to the manufacturer's instructions (Cisbio).

NOD1 [4] = test: iE-DAP-stimulated IL-8 release in 293/hNOD1 cells (HTRF); format: cell-based, human; details: Homo sapiens; IL-8 end-point; 60 ng/mL iE-DAP; read-out: IC50 293/hNOD1 iE-DAP
Description: as §2

NOD1 [5] = test: Tri-DAP-stimulated IL-8 release in HCT116 cells (endogenous NOD1); format: cell-based, human
Description: (§3) Compound activity on endogenous NOD1 and NOD2 receptors was determined by inhibition of either Tri-DAP or MDP-stimulated IL-8 release, respectively, using HCT116 human colon carcinoma cells. […] The cells were maintained in DMEM high glucose medium supplemented with 25 mM HEPES and 10% FBS. For assay, cells were seeded into 96 well plates (90,000 cells/well) in DMEM containing 1% FBS and pre-incubated with compounds for 1 hour before addition of either 1 μg/mL MDP or 25 μg/mL Tri-DAP. The level of IL-8 released into medium after 24-hour incubation was determined by HTRF assay as described above and fluorescence measured on an Envision model 2102 multilabel plate reader (Perkin Elmer).

NOD2 [6] = test: MDP-stimulated IL-8 release in HCT116 cells (endogenous NOD2); format: cell-based, human
Description: as §3

TNFR1 = test: TNFα-stimulated (TNFR1-induced) IL-8 release in 293/hNOD2 cells; format: cell-based, human; details: Homo sapiens; IL-8 end-point; 20 ng/mL rhTNFα; read-out: IC50 293/hNOD2 TNFα
Description: as §2

TLR2 [7] = test: Pam2CSK4-stimulated IL-8 release in 293/hTLR2 cells; format: cell-based, human; details: Homo sapiens; IL-8 end-point; 3–10 ng/mL Pam2CSK4; read-out: IC50 293/hTLR2 Pam2CSK4
Description: as §2

[8] = target: T1, full length human FLAG-6His tagged RIP2 (Homo sapiens, UniProt O43353); test: RIP2 kinase autophosphorylation assay (ADP-Glo); format: biochemical; details: autophosphorylation of RIPK2; 10 μM ATP
T1 construct: autophosphorylation of full length human FLAG-6His tagged RIP2; FLAG; 6His; made in house
T1 sequence (O43353 whole entry): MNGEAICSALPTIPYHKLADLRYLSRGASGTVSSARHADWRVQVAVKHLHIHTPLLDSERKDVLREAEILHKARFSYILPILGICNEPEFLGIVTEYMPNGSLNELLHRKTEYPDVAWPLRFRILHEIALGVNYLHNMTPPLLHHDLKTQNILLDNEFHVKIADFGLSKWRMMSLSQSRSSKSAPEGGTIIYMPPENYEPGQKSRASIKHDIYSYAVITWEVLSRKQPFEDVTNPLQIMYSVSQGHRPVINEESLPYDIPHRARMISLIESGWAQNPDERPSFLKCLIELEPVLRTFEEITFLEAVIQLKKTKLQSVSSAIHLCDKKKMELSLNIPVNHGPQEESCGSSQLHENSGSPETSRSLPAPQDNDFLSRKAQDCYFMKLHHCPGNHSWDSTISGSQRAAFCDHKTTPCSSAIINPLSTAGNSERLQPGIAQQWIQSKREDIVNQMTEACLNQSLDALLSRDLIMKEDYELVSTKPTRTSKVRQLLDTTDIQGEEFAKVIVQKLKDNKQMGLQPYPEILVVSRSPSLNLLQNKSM
Description: Direct effects of compounds on RIP2 kinase activity was determined by autophosphorylation of full length human FLAG-6His tagged RIP2 expressed and purified from baculovirus. Enzyme was pre-incubated with compounds in assay buffer (50 mM HEPES pH 7.5, 25 mM MgCl2, 0.05%[w/v] CHAPS, 1 mM DTT and 0.05 mg/mL BSA) in 384-well plates, and then incubated with 10μM ATP for 2 hours at room temperature. The amount of ADP generated was measured using the ADP-Glo universal ADP detection assay for kinases (Promega) and luminescence quantified on a ViewLux imager.

NOD2 [9] = test: Western blot of MAPK phosphorylation and IκBα in MDP-stimulated 293/hNOD2 cells; format: cell-based, human; details: GSK669 at 1 and 10 μM
Description: Confluent cultures of 293/-hNOD1 and -hNOD2 cells in 24-well plates were serum-starved over-night. The next day, cells were pre-incubated for 1 hour with compound and then stimulated for 1 hour with either 50 μg/mL Tri-DAP or 25 μg/mL MDP, respectively. Whole cell lysates were prepared in 1X cell lysis buffer (Cell Signaling Technology) containing additional inhibitors of aspartic, cysteine and serine proteases and aminopeptidases (protease inhibitor cocktail set III, EMD Biosciences) and inhibitors of multiple phosphatases (phosphatase inhibitor cocktail sets II and III, Sigma-Aldrich). The levels of phosphorylated and total p38, JNK, ERK1/2 and total IκBα were determined by immunoblotting of ∼20 μg protein per sample using the following primary antibodies: phospho-p38 MAPK (12F8, #4631), p38 MAPK (#9212), phospho-JNK (#9251), JNK (#9252) and IκBα (#9242) all purchased from Cell Signaling Technology, and phospho-ERK1/2 (sc-7383) and ERK1/2 (sc-94) antibodies from Santa Cruz Biotechnology.

HCT116 cells = test: Uptake of MDP-rhodamine by HCT116 cells (fluorescence microscopy); format: cell-based, human; details: GSK669 up to 20 μM, chlorpromazine 20 μM, 1–4 hour
Description: HCT116 cells seeded onto glass cover-slips at low density were pre-treated with GSK669 or the endocytosis inhibitor chlorpromazine for 30 minutes before addition of 2.5 μg/mL MDP-rhodamine. Live cells were viewed periodically over 6-hours incubation at 37 °C using a Nikon eclipse TE2000-E fluorescent inverted microscope fitted with a CCTV camera and rhodamine filter.

[10] = MDP-stimulated IL-8 production assay in 293/hNOD2 cells, Figures 4 and 5, read-out: NOD2 IC50

SMILES: CN(CCc1nc2ccccc2n1CC(=O)Nc1ccc2c(c1)CCC2)C(=O)c1ccccc1 [Compound 29, N-(2-(1-(2-((2,3-dihydro-1H-inden-5-yl)amino)-2-oxoethyl)-1H-benzo[d]imidazol-2-yl)ethyl)-N-methylbenzamide]
effect on MDP-stimulated IL-8 release in monocytes (NOD2 [1]; GSK717 0.5–16 μM, RIP2 inhibitor 0.05–1.6 μM): prevented
effect on MDP-stimulated cytokine secretion, single concentration (NOD2 [1]; primary human monocytes, compound 5 μM, IL-1β, IL-6, IL-8, TNFα, 24 hours): abrogated the stimulatory effect of MDP
effect on Pam2CSK4-stimulated IL-8 release in monocytes (TLR2 [2]): but not Pam2CSK4-stimulated IL-8 release
effect on synergistic IL-8 response of co-stimulated monocytes (NOD2 and TLR2): blocks synergy between NOD2 and TLR2; also recorded: abolished the clear synergistic IL-8 response

IC50 (NOD2 [3]; IL-8 end-point, 30 ng/mL MDP, read-out: IC50 293/hNOD2 MDP): 5 µM
IC50 (NOD2 [3]; [10]): 4 ± 3.9 µM
IC50 (NOD1 [4]): > 50 µM
IC50 (NOD1 [5]; Homo sapiens, HCT-116, IL-8 end-point, 25 μg/mL Tri-DAP): > 50 µM
IC50 (NOD2 [6]; Homo sapiens, HCT-116, IL-8 end-point, 1 μg/mL MDP): 1100 ± 700 nM
IC50 (TNFR1): > 100 µM
IC50 (TLR2 [7]): > 100 µM
IC50 [8]: > 100 µM
SMILES: CC(C)c1ccc(NC(=O)Cn2c(CCNC(=O)c3ccccc3)nc3ccccc32)cc1 [Compound 2, N-(2-(1-(2-((4-isopropylphenyl)amino)-2-oxoethyl)-1H-benzo[d]imidazol-2-yl)ethyl)benzamide]
effect on IL-8 secretion induced by Tri-DAP in HCT116 cells (NOD1 [5]; Tri-DAP 25 μg/mL, 1 hour pre-treatment): had no effect
effect on IL-8 secretion induced by MDP in HCT116 cells (NOD2 [6]; MDP 1 μg/mL, 1 hour pre-treatment): dose-dependently inhibited
effect on MDP-induced p-p38, p-JNK and total IκBα (NOD2 [9]): more modest inhibitory effects

SMILES: CN(C)CCCN1c2ccccc2Sc2ccc(Cl)cc21 [chlorpromazine, reference compound]
effect on uptake of Rhodamine-MDP into cells (HCT116 cells): intracellular punctate fluorescence did not develop

IC50 (NOD2 [3]; [10]): 1.3 ± 0.02 µM
SMILES: O=C(Cn1c(CCNC(=O)c2ccccc2)nc2ccccc21)Nc1ccc2sccc2c1 [Compound 4, N-(2-(1-(2-(benzo[b]thiophen-5-ylamino)-2-oxoethyl)-1H-benzo[d]imidazol-2-yl)ethyl)benzamide]

IC50 (NOD2 [3]; [10]): > 50 µM
SMILES: O=C(Cn1c(CCNC(=O)c2cccc(C(F)(F)F)c2)nc2ccccc21)Nc1ccc2c(c1)CCC2 [Compound 20, N-(2-(1-(2-((2,3-dihydro-1H-inden-5-yl)amino)-2-oxoethyl)-1H-benzo[d]imidazol-2-yl)ethyl)-3-(trifluoromethyl)benzamide]

IC50 (NOD2 [3]; [10]): > 50 µM
SMILES: Cc1cccc(C(=O)NCCc2nc3ccccc3n2CC(=O)Nc2ccc3c(c2)CCC3)c1 [Compound 21, N-(2-(1-(2-((2,3-dihydro-1H-inden-5-yl)amino)-2-oxoethyl)-1H-benzo[d]imidazol-2-yl)ethyl)-3-methylbenzamide]

IC50 (NOD2 [3]; [10]): > 50 µM
SMILES: COc1ccc2nc(CCNC(=O)c3ccccc3)n(CC(=O)Nc3ccc4c(c3)CCC4)c2c1 [Compound 27, N-(2-(1-(2-((2,3-dihydro-1H-inden-5-yl)amino)-2-oxoethyl)-6-methoxy-1H-benzo[d]imidazol-2-yl)ethyl)benzamide]

IC50 (NOD2 [3]; [10]): 20 µM
SMILES: CN(C(=O)Cn1c(CCNC(=O)c2ccccc2)nc2ccccc21)c1ccc2c(c1)CCC2 [Compound 31, N-(2-(1-(2-((2,3-dihydro-1H-inden-5-yl)(methyl)amino)-2-oxoethyl)-1H-benzo[d]imidazol-2-yl)ethyl)benzamide]

IC50 (NOD2 [3]; [10]): > 50 µM
SMILES: O=C(Cn1c(CCNC(=O)c2cccc(Cl)c2)nc2ccccc21)Nc1ccc2c(c1)CCC2 [Compound 22, 3-chloro-N-(2-(1-(2-((2,3-dihydro-1H-inden-5-yl)amino)-2-oxoethyl)-1H-benzo[d]imidazol-2-yl)ethyl)benzamide]

IC50 (NOD2 [3]; [10]): 0.2 ± 0.01 µM
SMILES: CN(CCc1nc2ccccc2n1CC(=O)Nc1ccc2ccccc2c1)C(=O)c1ccccc1 [Compound 32, N-methyl-N-(2-(1-(2-(naphthalen-2-ylamino)-2-oxoethyl)-1H-benzo[d]imidazol-2-yl)ethyl)benzamide]

IC50 (NOD2 [3]; [10]): 1.3 µM
SMILES: CN(CCc1nc2ccccc2n1CC(=O)Nc1ccc2occc2c1)C(=O)c1ccccc1 [Compound 36, N-(2-(1-(2-(benzofuran-5-ylamino)-2-oxoethyl)-1H-benzo[d]imidazol-2-yl)ethyl)-N-methylbenzamide]
